Read-outs that look alike come from different tables or passages of the source.
Tests used:
HDAC (HeLa cell extract) = assay: Primary assay: deacetylase activity, HeLa cell extract as source of HDAC; format: biochemical, human; details: for IC50: read-out: HDAC Inhibition (IC50 unless otherwise specified) HeLa; for HDAC Inhibition HeLa, % @ 100 nM: 100 nM compound; for HDAC Inhibition HeLa, % @ 500 nM: 500 nM compound
Method: Decreased activity indicates increased inhibition by the test compound.
Alternatively, the activity of the compounds as HDAC inhibitors was determined using a commercially available fluorescent assay kit: (Fluor de Lys™, BioMol Research Labs, Inc., Plymouth Meeting, USA).
Extensive comparative studies have shown that Primary Assay (1) and Primary Assay (2), discussed above, yield equivalent results. Primary Assay results reported herein are (a) exclusively from (1); (b) exclusively from (2); or (c) from both (1) and (2).
The HeLa cell extract was made from HeLa cells (ATCC Ref. No. CCL-2) by freeze-thawing three times in 60 mM TrisCl pH 8.0, 450 mM NaCl, 30% glycerol. Two cell volumes of extraction buffer were used, and particulate material was centrifuged out (20800 g, 4° C., 10 min). The supernatant extract having deacetylase activity was aliquoted and frozen for storage.
(§1) % activity={(S^C−B)/(S^o−B)}×100

[1] = test system: K11 (HPV E7 transformed human keratinocyte line); assay: Secondary assay: cell proliferation inhibition WST-1, K11; format: cell-based; details: K11, 48 h, read-out: Cell Proliferation Inhibition WST-1 (IC50 unless otherwise specified) K11
Source text: (§2) Compounds with HDAC inhibition activity, as determined using the primary assay, were subsequently evaluated using secondary cell-based assays. The following cell lines were used:
(§3) HeLa—Human cervical adenocarcinoma cell line (ATCC ref. No. CCL-2). K11—HPV E7 transformed human keratinocyte line provided by Pidder Jansen-Duerr, Institut für Biomedizinische Altemsforschung, Innsbruck, Austria. NHEK-Ad—Primary human adult keratinocyte line (Cambrex Corp., East Rutherford, N.J., USA).
(§4) Cells were plated in 96-well plates at 3-10×10^3 cells/well in 100 μL of culture medium. The following day, different concentrations of candidate compounds were added and the cells incubated at 37° C. for 48 h. Subsequently, 10 μL/well of WST-1 reagent was added and the cells reincubated for 1 hour. After the incubation time, absorbance was measured.
(§5) WST-1 is a tetrazolium salt which is cleaved to formazan dye by cellular enzymes. An expansion in the number of viable cells results in an increase in the overall activity of mitochondrial dehydrogenases in the sample. This augmentation in the enzyme activity leads to an increase in the amount of formazan dye formed, which directly correlates to the number of metabolically active cells in the culture. The formazan dye produced is quantified by a scanning multiwell spectrophotometer by measuring the absorbance of the dye solution at 450 nm wavelength (reference wavelength 690 nm).
(§6) Percent activity (% activity) in reducing the number of viable cells was calculated for each test compound as:
as §1
(§7) IC50 values were calculated using the software package Prism 3.0 (GraphPad Software Inc., San Diego, Calif.), setting top value at 100 and bottom value at 0.

[2] = test system: JURKAT (human T-cell line); assay: Secondary assay: cell proliferation inhibition WST-1, Jurkat; format: cell-based; details: 48 h, read-out: Cell Proliferation Inhibition WST-1 (IC50 unless otherwise specified) Jurkat
HeLa cells = assay: Secondary assay: cell proliferation inhibition WST-1, HeLa; format: cell-based; details: Homo sapiens, 48 h, read-out: Cell Proliferation Inhibition WST-1 (IC50 unless otherwise specified) HeLa
Source text: as §2, §3, §4, §5, §6, §1, §7

[3] = test system: NHEK-Ad (primary human adult keratinocyte line); assay: Secondary assay: cell proliferation inhibition WST-1, NHEK-Ad; format: cell-based; details: NHEK-AD; 48 h; read-out: Cell Proliferation Inhibition WST-1 (IC50 unless otherwise specified) NHEK-AD
Source text: as §2, §3, §4
WST-1 is a tetrazolium salt which is cleaved to formazan dye by cellular enzymes. […] The formazan dye produced is quantified by a scanning multiwell spectrophotometer by measuring the absorbance of the dye solution at 450 nm wavelength (reference wavelength 690 nm).
Percent activity (% activity) in reducing the number of viable cells was calculated for each test compound as: […]
as §7

Molecule	IC50 (HDAC (HeLa cell extract))	melting point	further results
O=C(/C=C/c1cccc(S(=O)(=O)N2CCN(c3ccccc3Cl)CC2)c1)NO [PX118811, (E)-N-Hydroxy-3-{3-[(4-(2-chlorophenyl)-1-piperazinyl)sulfonyl]phenyl}-2-propenamide]	42 nM	183 °C	
O=C(/C=C/c1cccc(S(=O)(=O)N2CCN(c3ccccc3)CC2)c1)NO [PX118490, (E)-N-Hydroxy-3-{3-[(4-phenyl-1-piperazinyl)sulfonyl]phenyl}-2-propenamide]			IC50 ([1]; Homo sapiens, Keratinocyte): 2490 nM; IC50 ([2]; Homo sapiens): 460 nM; IC50 (HeLa cells): 1000 nM; HDAC Inhibition HeLa, % @ 100 nM (HDAC (HeLa cell extract)): 59% @ 100 nM
O=C(/C=C/c1cccc(S(=O)(=O)N2CCN(c3ccccn3)CC2)c1)NO [PX118807, (E)-N-Hydroxy-3-{3-[(4-(2-pyridinyl)-1-piperazinyl)sulfonyl]phenyl}-2-propenamide]			HDAC Inhibition HeLa, % @ 100 nM (HDAC (HeLa cell extract)): 60% @ 100 nM
O=C(CCCCCCC(=O)N1CCN(C(c2ccccc2)c2ccccc2)CC1)NO [PX117764]	785 nM	126 to 129 °C	IC50 ([1]; Homo sapiens, Keratinocyte): 9450 nM; IC50 ([2]; Homo sapiens): 2680 nM; IC50 (HeLa cells): 29200 nM
O=C(CCCCCC(=O)N1CCN(c2ccccc2)CC1)NO [PX117404, 7-Oxo-7-(4-phenyl-piperazin-1-yl)-heptanoic acid hydroxyamide]		107 to 109 °C	HDAC Inhibition HeLa, % @ 500 nM (HDAC (HeLa cell extract)): 35% @ 500 nM
COc1ccccc1N1CCN(S(=O)(=O)c2cccc(/C=C/C(=O)NO)c2)CC1 [PX118810, (E)-N-Hydroxy-3-{3-[(4-(2-methoxyphenyl)-1-piperazinyl)sulfonyl]phenyl}-2-propenamide]	46 nM	190 °C	
COc1ccccc1N1CCN(C(=O)CCCCCCC(=O)NO)CC1 [PX117768, 8-[4-(2-Methoxy-phenyl)-piperazin-1-yl]-8-oxo-octanoic acid hydroxyamide]	175 nM	135 to 137 °C	IC50 ([1]; Homo sapiens, Keratinocyte): 8670 nM; IC50 ([2]; Homo sapiens): 1040 nM; IC50 (HeLa cells): 3300 nM
oxamflatin [reference compound]			IC50 [2]: 170 nM
Nc1ccccc1NC(=O)c1ccc(CNC(=O)OCc2cccnc2)cc1 [MS-275, reference compound]			IC50 [1]: 9160 nM; IC50 [2]: 365 nM; IC50 [3]: 3100 nM
O=C(/C=C/c1cccc(S(=O)(=O)N2CCN(c3cccc(Cl)c3)CC2)c1)NO [PX118812, (E)-N-Hydroxy-3-{3-[(4-(3-chlorophenyl)-1-piperazinyl)sulfonyl]phenyl}-2-propenamide]	26 nM	201 °C	
O=C(CCCCCCC(=O)N1CCN(C(=O)c2ccccc2)CC1)NO [PX118831, 8-(4-Benzoyl-piperazin-1-yl)-8-oxo octanoic acid hydroxyamide]	194 nM	100 to 101 °C	

More lines, main results first:

IC50 (HDAC (HeLa cell extract))	melting point	Molecule	further results
188 nM	128 to 130 °C	O=C(CCCCCC(=O)N1CCN(c2ccccc2Cl)CC1)NO [PX118793, 7-[4-(2-Chloro-phenyl)-piperazin-1-yl]-7-oxo heptanoic acid hydroxyamide]	
26 nM	125 to 127 °C	O=C(CCCCCCC(=O)N1CCN(c2ccc([N+](=O)[O-])cc2)CC1)NO [PX118849, N-Hydroxy-8-[4-(4-nitrophenyl)-1-piperazinyl]-8-oxooctanamide]	
74 nM	120 to 122 °C	O=C(CCCCCC(=O)N1CCN(c2cccc(Cl)c2)CC1)NO [PX118794, 7-[4-(3-Chloro-phenyl)-piperazin-1-yl]-7-oxo heptanoic acid hydroxyamide]	
133 nM	133.5 to 134.5 °C	O=C(CCCCCCC(=O)N1CCN(C(=O)c2ccc3ccccc3c2)CC1)NO [PX118830, 8-[4-(Naphthalene-2-carbonyl)-piperazin-1-yl]-8-oxo octanoic acid hydroxyamide]	
36 nM	131 to 132 °C	O=C(CCCCCCC(=O)N1CCN(c2ccccc2Cl)CC1)NO [PX118791, 8-[4-(2-Chloro-phenyl)-piperazin-1-yl]-8-oxo octanoic acid hydroxyamide]	
3.4 nM	149 to 150 °C	COc1ccc(N2CCN(C(=O)CCCCCCC(=O)NO)CC2)cc1 [PX118846, 8-[4-(4-Methoxyphenyl)-piperazin-1-yl]-8-oxo octanoic acid hydroxyamide]	
212 nM	90 to 92 °C	CN(C)c1ccc(C(=O)N2CCN(C(=O)CCCCCCC(=O)NO)CC2)cc1 [PX118832]	
34 nM	122 to 124 °C	O=C(CCCCCCC(=O)N1CCN(c2cccc(Cl)c2)CC1)NO [PX118792, 8-[4-(3-Chloro-phenyl)-piperazin-1-yl]-8-oxo octanoic acid hydroxyamide]	
	77 to 79 °C	CN(C)c1ccc(CC(=O)N2CCN(C(=O)CCCCCCC(=O)NO)CC2)cc1 [PX118848, 8-(4-{2-[4-(Dimethylamino)phenyl]acetyl}-1-piperazinyl)-N-hydroxy-8-oxooctanamide]	HDAC Inhibition HeLa, % @ 100 nM (HDAC (HeLa cell extract)): 44% @ 100 nM
31 nM	122 to 122.5 °C	COc1cccc(N2CCN(C(=O)CCCCCCC(=O)NO)CC2)c1 [PX118847, 8-[4-(3-Methoxyphenyl)-piperazin-1-yl]-8-oxo octanoic acid hydroxyamide]	
	157 to 159 °C	O=C(CCCCCC(=O)N1CCN(C(c2ccccc2)c2ccccc2)CC1)NO [PX117403, 7-(4-Benzhydryl-piperazin-1-yl)-7-oxo-heptanoic acid hydroxyamide]	HDAC Inhibition HeLa, % @ 500 nM (HDAC (HeLa cell extract)): 28% @ 500 nM
70 nM	132 to 133.5 °C	O=C(CCCCCCC(=O)N1CCN(c2ncccn2)CC1)NO [PX118850, N-Hydroxy-8-oxo-8-[4-(2-pyrimidinyl)-1-piperazinyl]octanamide]	
286 nM	150 to 150.5 °C	N#Cc1ccc(C(=O)N2CCN(C(=O)CCCCCCC(=O)NO)CC2)cc1 [PX118844, 8-[4-(4-Cyanobenzoyl)-piperazin-1-yl]-8-oxo octanoic acid hydroxyamide]	
